Here are results for two compounds from US11759451B2, “Therapeutic potential of glycopyrrolate and mexiletine for nervous system injury” (City University of Hong Kong, priority 2020, dated 2023).

The test system of one experiment is M1-M3 mAChRs. The settings on record: background description of the drug; cited from earlier work.
Experiment [1] deals with sciatic nerve crush injury. Put plainly: sciatic nerve pinch test after sciatic nerve crush injury. The format is in vivo, adult male C57BL/6 mice. The conditions noted are these: for increase of the most distal axonal regrowth (sciatic nerve pinch test): i.p. glycopyrrolate 2 mg/kg or mexiletine 10 mg/kg for 3 consecutive days after injury, 72 hours after crush, n=5-6 per group; for in vivo axon regeneration after sciatic nerve crush injury (pinch test), in words: i.p. glycopyrrolate 2 mg/kg or mexiletine 10 mg/kg, 3 days after injury. As for the experimental part:
(§1) (A) Experimental paradigm for sciatic nerve pinch test. Sciatic nerve crush injury was performed on the left sciatic nerve of adult male C57BL/6 mice. We performed nerve pinch test in adult mice injected intraperitoneally with glycopyrrolate (2 mg/kg) or mexiletine (10 mg/kg) for 3 consecutive days after injury. […] Scale bar: 100 μm. Mean±SEM; *P<0.05, Student's t-test.
(§2) In the current project, a sciatic nerve crush injury was used as an in vivo animal model for peripheral nerve injury. Adult male C57BL/6 mice (8-12 weeks old) were used for all experiments. All mouse husbandry and euthanasia were in compliance with the Institutional Animal Care and Use Committee (IACUC) guidelines. Surgical procedures performed were in accordance with protocols approved by the City University of Hong Kong Animal Research Ethics Sub-Committee and Department of Health, Hong Kong SAR. Under anesthesia, the left sciatic nerve was exposed, and crushed with 5/45 smooth forceps (Fine Science Tools) for 15 seconds at the level of external rotator muscles, distal to the sciatic notch after separation from the surrounding connective tissue (FIG. 2).
(§3) Glycopyrrolate or mexiletine was first dissolved in 0.9% saline, and injected intraperitoneally immediately after sciatic nerve crush injury for 3 consecutive days at 2 mg/kg and 10 mg/kg, respectively (FIGS. 3A and B).
(§4) The extent of axon regeneration was evaluated using sciatic nerve pinch test, and verified by quantifications of GAP-43-positive regenerating axonal fibres 72 hours after sciatic nerve crush injury.
Sciatic nerve pinch test was performed on the ipsilateral nerves 72 hours after sciatic nerve crush injury. The left sciatic nerve was first exposed to mid-thigh level under deep anaesthesia (i.e. 2.5% isoflurane). Under light anaesthesia (i.e. 1% isoflurane), a series of pinches were applied from the most distal part of the nerve (i.e. trifurcation), moving proximally towards the crushed site using smooth forceps (Fine Science Tools). The distance (in mm) representing the extent of axonal regrowth was recorded from the crushed site to the most distal point of the nerve where initial withdrawal response was observed after pinching (FIGS. 4A and C).

Experiment [2] concerns axotomized dorsal root ganglion (DRG) neurons. Put plainly: neurite outgrowth assay in primary cultures of axotomized DRG neurons. The format is cell-based, adult C57BL/6 mice. The conditions noted are these: vs 0.1% DMSO solvent control; for average total neurite length (neurite outgrowth): glycopyrrolate 5, 10 and 100 μM or mexiletine 10, 50 and 100 μM added 1 h after plating, 17 h growth; for cell survival of DRG neurons: same cultures, 17 h. As for the experimental part:
Primary cultures of DRG neurons were prepared from adult C57BL/6 mice, and plated onto a poly-D-lysine and laminin-coated 8-well chamber. Glycopyrrolate and mexiletine were added into the cultured DRG neurons at various concentrations as indicated one hour after plating. 0.1% DMSO served as solvent control. The cultures were allowed to grow for 17 h. After fixation, the DRG neurons were immunostained with anti-βIII-tubulin primary antibodies highlighting the cell bodies of DRG neurons and their adjacent neurites for neurite outgrowth assay. (A) Average total neurite length was quantified using automated WIS-NeuroMath 5 software. […] Scale bar: 500 μm.
In the current study, the intrinsic growth capacity of peripheral neurons was first assessed, which is a critical determinant for successful axon regeneration after injury, after treating the neurons with glycopyrrolate and mexiletine. Primary culture of adult dorsal root ganglion (DRG) neurons is a widely used in vitro models to assess cues that could promote axonal outgrowth. Primary DRG neurons were prepared from adult C57BL/6 mice (8-12 weeks old). DRG neurons were dissected out, mildly digested with a solution of collagenase and dispase II (Roche Diagnostics), trypsinized and mechanically dissociated into single cell suspension using flame-polished Pasteur pipettes with three different diameters. Two thousand DRG neurons were plated onto an 8-well chamber slide pre-coated with poly-D-lysine and laminin (Sigma Aldrich), and cultured in full Neurobasal medium (Gibco) supplemented with B27, 200 mM L-glutamine, penicillin-streptomycin, 50 ng/ml NGF (Gibco), 10 μM Ara-C and 2 ng/ml GDNF (Gibco). Glycopyrrolate (5, 10 and 100 μM) or mexiletine (10, 50 and 100 μM) was added into the cultured neurons 1 hour after plating, and the cultures were allowed to grow for 17 hours.
After 17 hours of incubation, the cultures were fixed with 4% paraformaldehyde (PFA), blocked with 0.5% bovine serum albumin (BSA)/0.1% Triton X-100 in PBS for 1 hour at room temperature, and incubated with anti-β III-tubulin primary antibodies (1:800, Sigma Aldrich) for overnight at 4° C. After washing with PBS, the cultures were incubated with Alexa Fluor 488-conjugated secondary antibodies (1:300, Molecular Probes) for 1 hour at room temperature. To assess the neurite outgrowth of axtomized DRG neurons after treatment of glycopyrrolate or mexiletine, 30 non-overlapping images were taken at 10× magnifications using Nikon Ni-E microscope equipped with a motorized stage. Total neurite length of individual DRG neurons from each treatment condition were measured by automated WIS-NeuroMath software (Weizmann Institute of Science). The total neurite length of the neurons was averaged from at least 250 neurons per condition. […]

For experiment [3], the system named is sciatic nerve crush injury. The settings on record: 72 hours after crush; for increase in number of GAP43-positive regenerating axons: i.p. glycopyrrolate 2 mg/kg or mexiletine 10 mg/kg for 3 days, 4 mm distal to the crushed site, n=3 per group; for GAP-43-positive regenerating axonal fibres at 4 mm distal to the crushed site, in words: i.p. glycopyrrolate 2 mg/kg or mexiletine 10 mg/kg. As for the experimental part: as §1, §2, §3, §4

The structures appear in SMILES notation. Entries after “also recorded” stand apart in the source; their conditions may differ.

As to `C[N+]1(C)CCC(OC(=O)C(O)(c2ccccc2)C2CCCC2)C1` (stereo not shown) [glycopyrrolate], the “selectivity among mAChR subtypes” value in the experiment with M1-M3 mAChRs was “no selectivity to M1-M3 mAChRs”. Moreover, in experiment [1], the “increase of the most distal axonal regrowth (sciatic nerve pinch test)” value was determined as 61% and the “in vivo axon regeneration after sciatic nerve crush injury (pinch test), in words” value is listed as “markedly accelerated in vivo axon regeneration; also recorded: significantly enhanced axon regeneration”. Moreover, in experiment [2], the “average total neurite length (neurite outgrowth)” value is recorded as “induced robust neurite extension; also recorded: induce substantial neurite outgrowth” and the “cell survival of DRG neurons” value was “did not exhibit any effects on cell survival; also recorded: without exerting any neuronal survival effects”. Besides, in experiment [3], the “increase in number of GAP43-positive regenerating axons” value worked out at 73% and the “GAP-43-positive regenerating axonal fibres at 4 mm distal to the crushed site, in words” value was “More GAP-43-positive regenerating axonal fiber were observed”.
Consider `Cc1cccc(C)c1OCC(C)N` (stereo not shown) [mexiletine], for which, in experiment [1], the “increase of the most distal axonal regrowth (sciatic nerve pinch test)” value is recorded as 59% and the “in vivo axon regeneration after sciatic nerve crush injury (pinch test), in words” value was “markedly accelerated in vivo axon regeneration; also recorded: significantly enhanced axon regeneration”. In experiment [2], the “average total neurite length (neurite outgrowth)” value was “induced robust neurite extension; also recorded: induce substantial neurite outgrowth” and the “cell survival of DRG neurons” value is “did not exhibit any effects on cell survival; also recorded: without exerting any neuronal survival effects”. Besides, in experiment [3], the “increase in number of GAP43-positive regenerating axons” value is 67% and the “GAP-43-positive regenerating axonal fibres at 4 mm distal to the crushed site, in words” value was “More GAP-43-positive regenerating axonal fiber were observed”.
